Where two headings read alike, the source gives them in different places.
Columns and labels:
CV-1 cells = assay: selective killing assay, colony number reduced to 50% of control, normal monkey kidney epithelial cell line CV-1; assay type: cell-based; conditions: Primates, 24 hours treatment
Excerpt: (§1) The control received culture media only.

CX-1 cells = assay: selective killing assay, colony number reduced to 50% of control, human colon carcinoma cell line CX-1; assay type: cell-based; conditions: for Selectivity (ratio of IC50 for CV-1 and IC50 for CX-1): CV-1/CX-1;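 on all read-outs here: colonies stained with crystal violet and counted, control cells given medium alone, exposure at 37 °C, normal monkey kidney epithelial CV-1 cells as the non-cancer comparator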
EJ cells = assay: colony assay of Example 1 with human bladder carcinoma EJ cell line; assay type: cell-based; conditions: for Selectivity: CV-1/EJ; for IC50: EJ, Table IV, human bladder carcinoma, 24 hours treatment;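 on all read-outs here: colony formation assay with 24 h compound exposure at 37 °C, then 7–10 days drug-free regrowth, colonies stained with crystal violet, controls given medium alone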
LOX cells = assay: colony assay of Example 1 with human melanoma LOX cell line; assay type: cell-based; conditions: for Selectivity: CV-1/LOX; for IC50: LOX, Table V, human melanoma, 24 hours treatment;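 on all read-outs here: colony formation assay with 24 h exposure at 37 °C, then 7 to 10 days of regrowth, crystal violet staining of colonies, control wells given medium alone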
MCF-7 cells = assay: colony assay of Example 1 with human breast carcinoma MCF-7 cell line; assay type: cell-based; conditions: for Selectivity: CV-1/MCF-7; for IC50: Table VI, human breast carcinoma, 24 hours treatment
Excerpt: as §1

CRL 1420 cells = assay: colony assay of Example 1 with human pancreatic carcinoma CRL 1420 cell line; assay type: cell-based; conditions: for Selectivity: CV-1/CRL-1420; for IC50: Homo sapiens, 24 h;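 on all read-outs here: colony formation assay, cells exposed for 24 h then regrown 7 to 10 days without compound, colonies stained with crystal violet, control given medium alone, normal reference CV-1 monkey kidney epithelial cells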
Experimental: Human colon carcinoma cell line CX-1 or normal monkey kidney epithelial cell line CV-1 was chosen as representatives of cancer cells and normal cells, respectively. […] CX-1 cells (2,000 cells/well) and CV-1 cells (1,000 cells/well) were plated in 24-well plastic culture plates. […] The control received culture media only. Cells were treated with compounds of General Formulas (I) to (V) at 37° C. for 24 hours. After rinsing with fresh culture medium three times, the cells were further incubated at 37° C. for 7 to 10 days. Cell colonies were fixed and stained with 2% crystal violet in 70% ethanol for 10 minutes and rinsed in water. […] The selectivity is defined as the ratio of IC50 for CV-1 and IC50 for CX-1.

human melanoma LOX = assay: survival of nude mice implanted with human melanoma LOX; assay type: in vivo, male athymic Swiss nu/nu mouse (human tumor); conditions: Mus musculus, ip, 24 h, read-out: T/C; for response vs control in vivo at 3 mg/kg: 3 mg/kg i.p. on day 1, 4, 8, 10, 12
Experimental: LOX, a human melanoma cell line, grown subcutaneously in nude mice was excised, trypsinized to yield a single cell suspension using a metal grid with a […] mesh. […] Five million viable trypan blue negative cells made up in 0.1 ml of Dulbecco modified Eagle medium (DMFE) were injected into the peritoneal cavity of a male athymic Swiss nu/nu mouse. The control group and each treatment group consisted of 5 to 10 mice. Treatment was commenced the following day by intraperitoneal injection.
Ten control mice received 0.25 ml of 2% dextrose on these days the treated groups were injected with the compounds of this invention. […] T/C is the ratio, expressed as a percentage of the mean survival age of the treated group to the mean survival age of the untreated control group.

[1] = CV-1, Table III, normal monkey kidney epithelial cells, colony count after 7 to 10 days
[2] = Homo sapiens, CX-1, Table III, human colon carcinoma, 24 hours treatment, colony count after 7 to 10 days
[3] = Table VII, human pancreatic carcinoma, 24 hours treatment

CCn1c(=C2CC[n+]3c2sc2ccccc23)sc(=C2Sc3ccccc3N2C)c1=O [Compound 29]
IC50 (CV-1 cells; CV-1, 24 h, Table IV): 10 µg/mL
IC50 (CV-1 cells; CV-1, 24 h, Table V): 10 µg/mL
IC50 (CV-1 cells; CV-1, 24 h, Table VI): 10 µg/mL
IC50 (CV-1 cells; CV-1, 24 h, Table VII): 10 µg/mL
IC50 (CV-1 cells; [1]): 10 µg/mL
Selectivity (ratio of IC50 for CV-1 and IC50 for CX-1) (CX-1 cells): 333
IC50 (CX-1 cells; [2]): 0.03 µg/mL
Selectivity (EJ cells): 200
IC50 (EJ cells; Homo sapiens, 24 h): 0.05 µg/mL
Selectivity (LOX cells): 333
IC50 (LOX cells; Homo sapiens, 24 h): 0.03 µg/mL
Selectivity (MCF-7 cells): 200
IC50 (MCF-7 cells; Homo sapiens, MCF7, 24 h): 0.05 µg/mL
Selectivity (CRL 1420 cells): 500
IC50 (CRL 1420 cells; [3]): 0.02 µg/mL

CCn1c(=Cc2oc3c4ccccc4ccc3[n+]2CC)sc(=C2Oc3ccc4ccccc4c3N2C)c1=O [Compound 254]
IC50 (CV-1 cells; CV-1, 24 h, Table IV): 6 µg/mL
IC50 (CV-1 cells; CV-1, 24 h, Table V): 6 µg/mL
IC50 (CV-1 cells; CV-1, 24 h, Table VI): 6 µg/mL
IC50 (CV-1 cells; CV-1, 24 h, Table VII): 6 µg/mL
Selectivity (ratio of IC50 for CV-1 and IC50 for CX-1) (CX-1 cells): 120
CX-1 (IC50) (CX-1 cells; Table III, human colon carcinoma, 24 hours treatment, colony count after 7 to 10 days): 0.05 µg/mL
Selectivity (EJ cells): 600
IC50 (EJ cells; Homo sapiens, 24 h): 0.01 µg/mL
Selectivity (LOX cells): 1200
IC50 (LOX cells; Homo sapiens, 24 h): 0.005 µg/mL
Selectivity (MCF-7 cells): 200
IC50 (MCF-7 cells; Homo sapiens, MCF7, 24 h): 0.03 µg/mL
Selectivity (CRL 1420 cells): 1200
IC50 (CRL 1420 cells; [3]): 0.005 µg/mL

CCn1c(=Cc2sc3ccccc3[n+]2CC)sc(=C2Sc3ccccc3N2C)c1=O [Compound 336]
IC50 (CV-1 cells; CV-1, Table IV): 20 µg/mL
IC50 (CV-1 cells; CV-1, Table V): 20 µg/mL
Selectivity (EJ cells): 667
IC50 (EJ cells): 0.03 µg/mL
Selectivity (LOX cells): 4000
IC50 (LOX cells): 0.005 µg/mL
Selectivity (MCF-7 cells): 100
IC50 (MCF-7 cells; MCF7): 0.2 µg/mL
Selectivity (CRL 1420 cells): 667
CRL-1420(IC50) (CRL 1420 cells; [3]): 0.03 µg/mL
response vs control in vivo at 5 mg/kg (human melanoma LOX; 5 mg/kg i.p. on day 1, 3, 4, 6, 8, 10, 13): 188%

CCn1c(=Cc2sc3ccc4ccccc4c3[n+]2CC)sc(=C2SCCN2C)c1=O [Compound 224]
IC50 (CV-1 cells; CV-1, 24 h, Table V): 20 µg/mL
IC50 (CV-1 cells; CV-1, 24 h, Table VI): 20 µg/mL
IC50 (CV-1 cells; [1]): 20 µg/mL
Selectivity (ratio of IC50 for CV-1 and IC50 for CX-1) (CX-1 cells): 250
IC50 (CX-1 cells; CX-1, Table III, human colon carcinoma, 24 hours treatment, colony count after 7 to 10 days): 0.08 µg/mL
Selectivity (LOX cells): 200
IC50 (LOX cells; Homo sapiens, 24 h): 0.1 µg/mL
Selectivity (MCF-7 cells): 200
IC50 (MCF-7 cells; Homo sapiens, MCF7, 24 h): 0.1 µg/mL
response vs control in vivo at 3 mg/kg (human melanoma LOX): 161%

CCn1c(=Cc2oc3cc4ccccc4cc3[n+]2CC)sc(=C2C=Cc3ccccc3N2C)c1=O [Compound 227]
IC50 (CV-1 cells; CV-1, 24 h, Table IV): 8 µg/mL
IC50 (CV-1 cells; CV-1, 24 h, Table V): 8 µg/mL
IC50 (CV-1 cells; CV-1, 24 h, Table VI): 8 µg/mL
IC50 (CV-1 cells; CV-1, 24 h, Table VII): 8 µg/mL
IC50 (CV-1 cells; [1]): 8 µg/mL
Selectivity (ratio of IC50 for CV-1 and IC50 for CX-1) (CX-1 cells): 100
IC50 (CX-1 cells; [2]): 0.08 µg/mL
Selectivity (EJ cells): 160
IC50 (EJ cells; Homo sapiens, 24 h): 0.05 µg/mL
Selectivity (LOX cells): 267
IC50 (LOX cells; Homo sapiens, 24 h): 0.03 µg/mL
Selectivity (MCF-7 cells): 160
IC50 (MCF-7 cells; Homo sapiens, MCF7, 24 h): 0.05 µg/mL
Selectivity (CRL 1420 cells): 160
IC50 (CRL 1420 cells; [3]): 0.05 µg/mL

CCn1c(=Cc2cc[n+](CC)c3ccccc23)sc(=C2C=Cc3ccccc3N2C)c1=O [Compound 232]
IC50 (CV-1 cells; CV-1, 24 h, Table IV): 6 µg/mL
IC50 (CV-1 cells; CV-1, 24 h, Table V): 6 µg/mL
IC50 (CV-1 cells; CV-1, 24 h, Table VI): 6 µg/mL
IC50 (CV-1 cells; CV-1, 24 h, Table VII): 6 µg/mL
Selectivity (EJ cells): 120
IC50 (EJ cells; Homo sapiens, 24 h): 0.05 µg/mL
Selectivity (LOX cells): 300
IC50 (LOX cells; Homo sapiens, 24 h): 0.02 µg/mL
Selectivity (MCF-7 cells): 150
IC50 (MCF-7 cells; Homo sapiens, MCF7, 24 h): 0.04 µg/mL
Selectivity (CRL 1420 cells): 200
IC50 (CRL 1420 cells; [3]): 0.03 µg/mL
response vs control in vivo at 3 mg/kg (human melanoma LOX): > 270%

CCn1c(=Cc2sc3c4ccccc4ccc3[n+]2CC)sc(=C2Sc3ccccc3N2C)c1=O [Compound 31]
IC50 (CV-1 cells; CV-1, 24 h, Table IV): 10 µg/mL
IC50 (CV-1 cells; CV-1, 24 h, Table V): 10 µg/mL
IC50 (CV-1 cells; CV-1, 24 h, Table VI): 10 µg/mL
IC50 (CV-1 cells; [1]): 10 µg/mL
Selectivity (ratio of IC50 for CV-1 and IC50 for CX-1) (CX-1 cells): 333
IC50 (CX-1 cells; [2]): 0.03 µg/mL
Selectivity (EJ cells): 500
IC50 (EJ cells; Homo sapiens, 24 h): 0.02 µg/mL
Selectivity (LOX cells): 250
IC50 (LOX cells; Homo sapiens, 24 h): 0.04 µg/mL
Selectivity (MCF-7 cells): 250
IC50 (MCF-7 cells; Homo sapiens, MCF7, 24 h): 0.04 µg/mL
response vs control in vivo at 5 mg/kg (human melanoma LOX; 5 mg/kg i.p. on day 1, 4, 8, 11): 153%

Reference: patent publication US5360803A, “Composition and method for treating cancer” (Dan Farber Cancer Institute, priority 1992, dated 1994)
